In BindingDB's records for doi:10.1021/jm970101g (Abbott Laboratories, 1997):

Biological target: Endothelin-1 receptor (Rattus norvegicus) (UniProt P26684)
Assay: Ability to block the ET-1-induced hydrolysis of inositol phosphate in Endothelin A receptor of MMQ cells.

Sequence of Endothelin-1 receptor (Rattus norvegicus) (P26684 whole entry, looked up): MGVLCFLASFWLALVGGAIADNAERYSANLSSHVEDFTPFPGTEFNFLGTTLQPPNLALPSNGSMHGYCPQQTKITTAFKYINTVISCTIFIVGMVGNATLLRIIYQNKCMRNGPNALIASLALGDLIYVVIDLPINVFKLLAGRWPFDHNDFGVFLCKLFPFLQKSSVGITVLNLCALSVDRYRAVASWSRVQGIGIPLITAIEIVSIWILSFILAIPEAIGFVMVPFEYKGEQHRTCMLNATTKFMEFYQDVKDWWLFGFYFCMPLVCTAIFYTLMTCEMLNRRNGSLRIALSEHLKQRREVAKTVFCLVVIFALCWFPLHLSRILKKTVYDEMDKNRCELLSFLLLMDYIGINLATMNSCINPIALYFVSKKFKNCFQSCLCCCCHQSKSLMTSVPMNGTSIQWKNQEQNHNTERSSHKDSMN

IC50: 0.55 nM
Compound: CCCN(CCN1C[C@H](c2ccc3c(c2)OCO3)[C@@H](C(=O)O)[C@@H]1c1ccc(OC)c(F)c1)S(=O)(=O)CCCCl [(2R,3R,4S)-4-Benzo[1,3]dioxol-5-yl-1-{2-[(3-chloro-propane-1-sulfonyl)-propyl-amino]-ethyl}-2-(3-fluoro-4-methoxy-phenyl)-pyrrolidine-3-carboxylic acid]
